From ChEMBL document CHEMBL1201862, “PubChem BioAssay data set” (2004)
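These data come from cells grown in 96-well plates and exposed to compound for 48 hours at five concentrations. The concentration for 50% growth inhibition is given as GI50.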 The source made the active and inactive calls. Rule as the data show it: active = GI50 up to about 1.1 µM and inactive = higher.

How the values were obtained:
Experiment in all cases: DTP human tumour cell line panel, 48 h
[1] = tested on: A549
[2] = tested on: MCF7
[3] = tested on: SF-268
[4] = tested on: Hs-578T
[5] = tested on: UACC-62
[6] = tested on: RXF 393
[7] = tested on: HOP-62
[8] = tested on: NCI/ADR-RES
[9] = tested on: OVCAR-8
[10] = tested on: HCT-116
[11] = tested on: MDA-N
[12] = tested on: KM12
[13] = tested on: NCI-H460
[14] = tested on: SK-MEL-2
[15] = tested on: SW-620
[16] = tested on: HCT-15
[17] = tested on: A498
[18] = tested on: M14
[19] = tested on: K562

COc1ccc(C(=O)/C=C2\C(=O)Nc3ccc(Br)cc32)cc1
GI50 [1]: 15.3 µM (inactive)
GI50 [2]: 6.44 µM (inactive)
GI50 [3]: 16.4 µM (inactive)
GI50 [4]: 13.8 µM (inactive)
GI50 [5]: 13.9 µM (inactive)
GI50 [6]: 2.29 µM (inactive)
GI50 [7]: 10.4 µM (inactive)
GI50 [8]: 1.71 µM (inactive)
GI50 [9]: 2.07 µM (inactive)
GI50 [10]: 4.05 µM (inactive)
GI50 [11]: 5.81 µM (inactive)
GI50 [12]: 3.21 µM (inactive)
GI50 [13]: 10 µM (inactive)
GI50 [14]: 16.1 µM (inactive)
GI50 [15]: 2.32 µM (inactive)
GI50 [16]: 2.13 µM
GI50 [17]: 17.9 µM (inactive)
GI50 [18]: 12 µM (inactive)
GI50 [19]: 5.07 µM (inactive)

OCC1OC(N2CCN(C3OC(CO)C(O)C(O)C3O)CC2)C(O)C(O)C1O (stereo not drawn)
GI50 [1]: > 100 µM (inactive)
GI50 [2]: > 100 µM (inactive)
GI50 [3]: > 100 µM (inactive)
GI50 [4]: > 100 µM (inactive)
GI50 [5]: > 100 µM (inactive)
GI50 [6]: > 100 µM (inactive)
GI50 [7]: > 100 µM (inactive)
GI50 [8]: > 100 µM (inactive)
GI50 [9]: > 100 µM (inactive)
GI50 [10]: > 100 µM (inactive)
GI50 [11]: > 100 µM (inactive)
GI50 [12]: > 100 µM (inactive)
GI50 [13]: > 100 µM (inactive)
GI50 [14]: > 100 µM (inactive)
GI50 [15]: > 100 µM (inactive)
GI50 [16]: > 100 µM
GI50 [17]: > 100 µM (inactive)
GI50 [18]: > 100 µM (inactive)
GI50 [19]: > 100 µM (inactive)

N#CCC(=O)N/N=C(\CCN1CCCC1)CC(c1ccccc1)c1c(O)c2ccccc2oc1=O (stereo not drawn)
GI50 [1]: > 71.9 µM (inactive)
GI50 [2]: 20.2 µM (inactive)
GI50 [3]: > 100 µM (inactive)
GI50 [4]: 63.7 µM (inactive)
GI50 [5]: > 80.2 µM (inactive)
GI50 [6]: > 100 µM (inactive)
GI50 [7]: > 100 µM (inactive)
GI50 [8]: 56.4 µM (inactive)
GI50 [9]: > 95.5 µM (inactive)
GI50 [10]: > 84.1 µM (inactive)
GI50 [11]: 58.6 µM (inactive)
GI50 [12]: > 63.7 µM (inactive)
GI50 [13]: > 100 µM (inactive)
GI50 [14]: > 61.1 µM (inactive)
GI50 [15]: > 58.2 µM (inactive)
GI50 [16]: > 67.5 µM
GI50 [17]: > 41.1 µM (inactive)
GI50 [18]: 98.6 µM (inactive)
GI50 [19]: 62.1 µM (inactive)

OCCCCn1cc(Cn2ncc3c(NCc4ccccc4)ncnc32)nn1
GI50 [1]: > 100 µM (inactive)
GI50 [2]: > 100 µM (inactive)
GI50 [3]: > 100 µM (inactive)
GI50 [4]: > 100 µM (inactive)
GI50 [5]: > 100 µM (inactive)
GI50 [6]: > 100 µM (inactive)
GI50 [7]: > 100 µM (inactive)
GI50 [8]: > 100 µM (inactive)
GI50 [9]: > 100 µM (inactive)
GI50 [10]: > 100 µM (inactive)
GI50 [11]: 42.8 µM (inactive)
GI50 [12]: > 100 µM (inactive)
GI50 [13]: > 100 µM (inactive)
GI50 [14]: > 100 µM (inactive)
GI50 [15]: > 100 µM (inactive)
GI50 [16]: > 100 µM
GI50 [17]: > 100 µM (inactive)
GI50 [18]: > 100 µM (inactive)
GI50 [19]: 44.3 µM (inactive)

CC(C#N)NCc1ccc(C(C)NC(C)C#N)cc1 (stereo not drawn)
GI50 [1]: > 100 µM (inactive)
GI50 [2]: > 100 µM (inactive)
GI50 [3]: > 100 µM (inactive)
GI50 [4]: > 100 µM (inactive)
GI50 [5]: > 100 µM (inactive)
GI50 [6]: > 100 µM (inactive)
GI50 [8]: > 100 µM (inactive)
GI50 [9]: > 100 µM (inactive)
GI50 [10]: > 100 µM (inactive)
GI50 [11]: > 100 µM (inactive)
GI50 [12]: > 100 µM (inactive)
GI50 [13]: > 100 µM (inactive)
GI50 [14]: > 100 µM (inactive)
GI50 [15]: > 100 µM (inactive)
GI50 [16]: > 100 µM
GI50 [17]: > 100 µM (inactive)
GI50 [18]: > 100 µM (inactive)
GI50 [19]: > 100 µM (inactive)

CN(CCCNC(=O)c1c2ccc3ccccc3c2nn1C)CCCNC(=O)c1c2ccc3ccccc3c2nn1C
GI50 [1]: 12.4 µM (inactive)
GI50 [2]: 3.94 µM (inactive)
GI50 [3]: 11.5 µM (inactive)
GI50 [4]: 14.2 µM (inactive)
GI50 [5]: 1.87 µM (inactive)
GI50 [6]: 5.94 µM (inactive)
GI50 [7]: 14.8 µM (inactive)
GI50 [8]: 13.6 µM (inactive)
GI50 [9]: 13.3 µM (inactive)
GI50 [10]: 4.76 µM (inactive)
GI50 [11]: 2.96 µM (inactive)
GI50 [12]: 8.13 µM (inactive)
GI50 [13]: 4.52 µM (inactive)
GI50 [14]: 5.04 µM (inactive)
GI50 [15]: 7.74 µM (inactive)
GI50 [16]: 6.93 µM
GI50 [17]: 6.9 µM (inactive)
GI50 [18]: 2.05 µM (inactive)
GI50 [19]: 3.48 µM (inactive)
